Assay results from patent publication US20090074815A1, “Immunomodulator Compounds as Vaccine Enhancers” (SCICLONE PHARMACEUTICALS, INC., priority 2005, published 2009).

What was measured:
[1] = tested on: IL-2 production by ConA-stimulated splenocytes; test: IL-2 production by ConA-stimulated splenocytes; type: in vivo, mice
[2] = tested on: IL-4 production by ConA-stimulated splenocytes; test: IL-4 production by ConA-stimulated splenocytes (EIA); type: in vivo, mice
[3] = tested on: leukocytes and lymphocytes in peripheral blood; test: Concentration of leukocytes and lymphocytes in peripheral blood before and after vaccination; type: in vivo, human; conditions: After vaccination
[4] = ConA 1 μg/ml, 10.0 μg/kg per os
[5] = ConA 1 μg/ml, 100.0 μg/kg per os
[6] = Spontaneous, 100.0 μg/kg per os
[7] = Patients of group 2 (SCV-07 + vaccine)

SMILES: N[C@H](CCC(=O)N[C@@H](Cc1c[nH]c2ccccc12)C(=O)O)C(=O)O [SCV-07, γ-D-glutamyl-L-tryptophan]
- IL-2 production (U/ml), M ± SD ([1]; ConA 1 μg/ml, 0.1 μg/kg i/p): 16.1 ± 0.8 U/ml
- IL-2 production (U/ml), M ± SD ([1]; ConA 1 μg/ml, 0.1 μg/kg per os): 7.5 ± 0.1 U/ml
- IL-2 production (U/ml), M ± SD ([1]; ConA 1 μg/ml, 1.0 μg/kg i/p): 15.6 ± 0.3 U/ml
- IL-2 production (U/ml), M ± SD ([1]; ConA 1 μg/ml, 1.0 μg/kg per os): 10.0 ± 0.4 U/ml
- IL-2 production (U/ml), M ± SD [1, 4]: 9.1 ± 1.3 U/ml
- IL-2 production (U/ml), M ± SD [1, 5]: 14.9 ± 2.4 U/ml
- IL-2 production (U/ml), M ± SD ([1]; ConA 2 μg/ml, 0.01 μg/kg per os): 66.9 ± 12.6 U/ml
- IL-2 production (U/ml), M ± SD ([1]; ConA 2 μg/ml, 0.1 μg/kg i/p): 93.4 ± 28.3 U/ml
- IL-2 production (U/ml), M ± SD ([1]; ConA 2 μg/ml, 0.1 μg/kg per os): 85.8 ± 6.6 U/ml
- IL-2 production (U/ml), M ± SD ([1]; ConA 2 μg/ml, 1.0 μg/kg i/p): 99.3 ± 6.1 U/ml
- IL-2 production (U/ml), M ± SD ([1]; ConA 2 μg/ml, 1.0 μg/kg per os): 60.8 ± 1.2 U/ml
- IL-2 production (U/ml), M ± SD ([1]; ConA 2 μg/ml, 10.0 μg/kg per os): 56.4 ± 2.1 U/ml
- IL-2 production (U/ml), M ± SD ([1]; ConA 2 μg/ml, 100.0 μg/kg per os): 79.3 ± 16.3 U/ml
- IL-2 production (U/ml), M ± SD ([1]; Spontaneous, 0.01 μg/kg per os): 0.0 ± 0.0 U/ml
- IL-2 production (U/ml), M ± SD ([1]; Spontaneous, 0.1 μg/kg i/p): 2.0 ± 0.3 U/ml
- IL-2 production (U/ml), M ± SD ([1]; Spontaneous, 0.1 μg/kg per os): 0.0 ± 0.0 U/ml
- IL-2 production (U/ml), M ± SD ([1]; Spontaneous, 1.0 μg/kg i/p): 2.7 ± 0.3 U/ml
- IL-2 production (U/ml), M ± SD ([1]; Spontaneous, 1.0 μg/kg per os): 0.3 ± 0.5 U/ml
- IL-2 production (U/ml), M ± SD ([1]; Spontaneous, 10.0 μg/kg per os): 0.0 ± 0.0 U/ml
- IL-2 production (U/ml), M ± SD [1, 6]: 0.3 ± 0.5 U/ml
- IL-4 ([2]; ConA 1 μg/ml, 0.01 μg/kg per os): 98.7 pg/mL
- IL-4 ([2]; ConA 1 μg/ml, 0.1 μg/kg i/p): 62.1 pg/mL
- IL-4 ([2]; ConA 1 μg/ml, 0.1 μg/kg per os): 78.9 pg/mL
- IL-4 ([2]; ConA 1 μg/ml, 1.0 μg/kg i/p): 52.8 pg/mL
- IL-4 ([2]; ConA 1 μg/ml, 1.0 μg/kg per os): 95.8 pg/mL
- IL-4 [2, 4]: 53.8 pg/mL
- IL-4 [2, 5]: 83.1 pg/mL
- IL-4 ([2]; ConA 5 μg/ml, 0.01 μg/kg per os): 284.9 pg/mL
- IL-4 ([2]; ConA 5 μg/ml, 0.1 μg/kg i/p): 277.5 pg/mL
- IL-4 ([2]; ConA 5 μg/ml, 0.1 μg/kg per os): 229.6 pg/mL
- IL-4 ([2]; ConA 5 μg/ml, 1.0 μg/kg i/p): 152.9 pg/mL
- IL-4 ([2]; ConA 5 μg/ml, 1.0 μg/kg per os): 260.0 pg/mL
- IL-4 ([2]; ConA 5 μg/ml, 10.0 μg/kg per os): 275.0 pg/mL
- IL-4 ([2]; ConA 5 μg/ml, 100.0 μg/kg per os): 192.0 pg/mL
- IL-4 ([2]; Spontaneous, 0.01 μg/kg per os): 6.1 pg/mL
- IL-4 ([2]; Spontaneous, 0.1 μg/kg i/p): 4.2 pg/mL
- IL-4 ([2]; Spontaneous, 0.1 μg/kg per os): 0.0 pg/mL
- IL-4 ([2]; Spontaneous, 1.0 μg/kg i/p): 0.0 pg/mL
- IL-4 ([2]; Spontaneous, 1.0 μg/kg per os): 25.3 pg/mL
- IL-4 ([2]; Spontaneous, 10.0 μg/kg per os): 19.4 pg/mL
- IL-4 [2, 6]: 27.1 pg/mL
- Leukocytes × 10^9/l ([3]; Healthy subjects (Group III)): 6.04 ± 0.31 10^9/l
- Lymphocytes % ([3]; Healthy subjects (Group III)): 19.05 ± 1.13%
- Lymphocytes × 10^9/l ([3]; Healthy subjects (Group III)): 1.19 ± 0.11 10^9/l
- Lymphocytes % [3, 7]: 27.81 ± 2.04%
- Lymphocytes × 10^9/l [3, 7]: 1.608 ± 0.096 10^9/l
- Leukocytes × 10^9/l ([3]; Patients of group 2 (infectious syndrome, SCV-07 1 mg i.m. + hepatitis B vaccine)): 5.938 ± 0.351 10^9/l
